According to article PMC12575728, “Galactose-modified small molecule modulator targets RORα to enhance circadian rhythm and alleviate periodontitis-associated alveolar bone loss” (Bone Research, 2025):

Key:
jet lag mice = test: Clock gene mRNA in liver of jet lag mice; format: in vivo; settings: mice with disordered circadian rhythms
Protocol: (§1) RNA from liver, periodontal tissues and cell samples was prepared as previously described. Total RNA (1 ug) was synthesized into cDNA using […] (Vazyme). mRNA expression levels were normalized to GAPDH. Relative expression levels and enrichment contents were calculated using the comparative Ct Method. Primer information is detailed in Data file S1.
Male C57BL/6 mice,[40] 2 months old, were housed under disrupted conditions for 4 weeks. From the third week, they were intraperitoneally injected with Gala-SR, SR1078, or DMSO for 3 weeks. In the fifth week, general anesthesia was administered via intraperitoneal injection of pentobarbital sodium (40 mg/kg), and a ligature was placed around the cervix of the maxillary second molar to establish the murine periodontitis model. Collect gingival tissue and liver tissue every 6 h continuously for a duration of 48 h.

RORα = test: G6Pase and Fgf21 mRNA in mouse liver after IP injection; format: in vivo, mice; settings: 10 mg/kg IP, liver collected 24 h after injection
Protocol: as §1

[1] = Toxicity and safety evaluation in vivo (blood biochemistry, histopathology); settings: mice, 10 mg/Kg
Protocol: (§2) 379 Figure S34. Exploration of the inhibitory effect of compound 9 on the targeting function of RORs. a.
(§3) 380 Synthetic route of compound 9. b. Cytotoxicity assessment of compound 9 by CCK-8 assay. c.qPCR
(§4) 381 analysis of downstream target genes (FGF21 and G6Pase) in compound 9-treated HepG2 cells(n=6).
(§5) 382 d. Cotransfection of HEK293T cells with RORα or RORγ and reporters containing the FGF21 or
(§6) 384 5μM each of Gala-SR and SR1078. (* represents the comparison with DMSO*P<0.05, n=4).
(§7) 386 Figure S35. Impact of Gala-SR on circadian clock gene expression in periodontal ligament stem cells.
(§8) 387 qPCR analysis of core clock genes at multiple time points in synchronized hPDLSCs treated with 5
(§9) 391 Figure S36.Toxicity and safety evaluation in vivo.a. After intraperitoneal injection of Gala-SR and
(§10) 392 SR1078 for 2 weeks, mouse serum was collected to measure […] (ALT, AST, CREA,
393 and BUN. ns, not significant) to assess the drugs' impact on liver function. b. HE staining was
394 performed on liver, kidney, and heart tissues from mice after 2 weeks of intraperitoneal injection with […]

β-galactosidase = test: Hydrolysis of Gala-SR by β-galactosidase (MS); format: in vitro ADME; settings: mass spectrometry
[2] = test system: human periodontal ligament stem cells; test: qPCR of circadian clock genes in synchronized human periodontal ligament stem cells; format: cell-based; settings: synchronized hPDLSCs, 5 µM, compared to DMSO and SR1078
Protocol: as §1, §2, §3, §4, §5, §6, §7, §8, §9, §10
393 and BUN. ns, not significant) to assess the drugs' impact on liver function. b. HE staining was […]

[3] = parameters: method as in PMID 20735016; settings: cited from earlier work

Row | SMILES | circadian rhythm of clock gene expression in liver tissue (jet lag mice) | G6Pase and FGF21 expression in mice liver compared to SR1078 (RORα) | histopathological examination of liver, kidney, and heart [1] | hydrolysis upon addition of galactosidase (release of SR1078) (β-galactosidase) | rhythmic expression amplitude of BMAL1, PER1, and PER2 [2] | safe dose for in vitro experiments ([3]; in vitro) [µmol/L] | safe dose for animal studies ([3]; mice) [mg/kg]
1 | O=C(Nc1ccc(C(OCO[C@@H]2O[C@H](CO)[C@H](O)[C@H](O)[C@H]2O)(C(F)(F)F)C(F)(F)F)cc1)c1ccc(C(F)(F)F)cc1 [Gala-SR] | effectively restored | significantly upregulated | no discernible changes | hydrolysis of galactose on, Gala-SR occurred | more effectively enhanced |  | 
2 | O=C(Nc1ccc(C(O)(C(F)(F)F)C(F)(F)F)cc1)c1ccc(C(F)(F)F)cc1 [SR1078, reference compound] |  |  |  |  |  | 5 | 10
